Experimental data as given in patent US7838230B2 (priority 2004, dated 2010).
pIC50: −log10 of the molar value.

Experiments:
topoisomerase IV [1] = biological target: T1, topoisomerase IV (Escherichia coli, UniProt P0AFI2+P20083); experiment: Topoisomerase IV relaxation, microplate assay; type: biochemical
topoisomerase IV [2] = biological target: T1, topoisomerase IV; experiment: Topoisomerase IV relaxation, gel electrophoresis assay; type: biochemical

T1 sequence (P20083 whole entry): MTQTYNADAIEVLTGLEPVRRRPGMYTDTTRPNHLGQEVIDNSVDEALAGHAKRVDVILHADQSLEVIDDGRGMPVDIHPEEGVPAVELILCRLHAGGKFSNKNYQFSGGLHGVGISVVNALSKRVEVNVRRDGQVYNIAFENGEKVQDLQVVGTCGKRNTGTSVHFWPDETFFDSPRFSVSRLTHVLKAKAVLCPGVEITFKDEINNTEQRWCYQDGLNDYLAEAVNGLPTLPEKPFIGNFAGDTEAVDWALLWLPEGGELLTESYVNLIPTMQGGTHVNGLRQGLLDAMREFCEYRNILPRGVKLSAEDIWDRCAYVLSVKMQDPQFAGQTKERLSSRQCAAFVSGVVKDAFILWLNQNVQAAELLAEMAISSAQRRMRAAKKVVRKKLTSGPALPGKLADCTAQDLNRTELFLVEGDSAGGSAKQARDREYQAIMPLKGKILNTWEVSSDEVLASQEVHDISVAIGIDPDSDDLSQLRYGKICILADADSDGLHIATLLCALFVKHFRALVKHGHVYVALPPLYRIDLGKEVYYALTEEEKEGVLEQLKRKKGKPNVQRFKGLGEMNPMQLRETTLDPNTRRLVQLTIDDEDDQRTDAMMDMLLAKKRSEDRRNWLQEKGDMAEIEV
T1 sequence (P0AFI2 whole entry): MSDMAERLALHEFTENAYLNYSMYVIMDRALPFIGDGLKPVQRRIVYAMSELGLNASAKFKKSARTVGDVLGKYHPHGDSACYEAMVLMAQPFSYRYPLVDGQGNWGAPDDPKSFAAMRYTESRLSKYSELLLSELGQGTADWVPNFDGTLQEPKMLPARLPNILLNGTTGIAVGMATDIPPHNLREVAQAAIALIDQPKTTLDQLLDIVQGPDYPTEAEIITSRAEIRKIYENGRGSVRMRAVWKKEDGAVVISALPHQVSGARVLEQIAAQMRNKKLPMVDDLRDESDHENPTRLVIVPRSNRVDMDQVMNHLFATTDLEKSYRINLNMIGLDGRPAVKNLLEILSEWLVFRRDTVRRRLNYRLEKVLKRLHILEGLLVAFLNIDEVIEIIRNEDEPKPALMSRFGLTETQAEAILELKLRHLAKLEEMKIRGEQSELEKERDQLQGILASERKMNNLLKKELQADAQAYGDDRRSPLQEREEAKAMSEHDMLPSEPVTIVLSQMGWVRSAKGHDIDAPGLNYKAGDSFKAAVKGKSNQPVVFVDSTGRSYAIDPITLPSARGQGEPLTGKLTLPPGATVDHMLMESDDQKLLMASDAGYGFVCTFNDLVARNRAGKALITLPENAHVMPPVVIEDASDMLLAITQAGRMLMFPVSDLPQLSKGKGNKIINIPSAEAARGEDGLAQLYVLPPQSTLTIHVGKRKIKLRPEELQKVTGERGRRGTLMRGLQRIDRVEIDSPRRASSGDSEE

CO[C@@H]1[C@@H](OC(=O)c2ccc(C)[nH]2)[C@@H](O)[C@H](Oc2ccc3c(O)c(NC(=O)c4ccc(O)c(CC=C(C)C)c4)c(=O)oc3c2Cl)OC1(C)C [Chlorbiocin]
pIC50 (topoisomerase IV [1]; supercoiled pNO1 substrate, plate assay, read-out: Topo IV Relaxation IC50 Plate assay): 6.49 | pIC50 (topoisomerase IV [2]; supercoiled pNO1 substrate, gel assay, read-out: Topo IV Relaxation IC50 Gel assay): 6.85

CCn1cc(C(=O)O)c(=O)c2ccc(C)nc21 [Naladixic acid]
pIC50 (topoisomerase IV [1]): 4.05 | pIC50 (topoisomerase IV [2]): 4.44
